According to patent US20130197085A1, “AGENT AND METHOD FOR STABILIZING MEMBRANE PROTEIN” (priority 2007, published 2013):

What was measured:
E297G BSEP = biological target: T1, E297G BSEP (Homo sapiens, UniProt O95342, E297G/L339V); assay: Cell surface biotinylation method, expression on the surface of MDCKII cells; assay type: cell-based; conditions: 1 mM, 24 hours
T1 construct: expressed in transfected cells; host or cells: MDCKII cells infected with recombinant adenovirus
Experimental: (§1) MDCKII cells were dispersed on a 6-well plate, resulting in a density of 2.5×10^5 cells/well. After completion of the culture for 24 hours, the confluent cells were infected with recombinant adenoviruses having the cDNAs of wild-type, E297G and D482G BSEPs, and GFP, at 200 MOI. After completion of the infection, the cells were cultured for 24 hours. […] After completion of the treatment for 24 hours, the cells were biotinylated (see Hayashi et al., Hepatology, 41: 916-924, 2005).

[1] = test system: intrinsic dipeptidyl peptidase IV (DPPIV); assay: as above; assay type: cell-based; conditions: 1 mM, 24 hours
Experimental: as §1

wild-type BSEP = biological target: T2, wild-type BSEP (Homo sapiens, UniProt O95342, L339V); assay: as above; assay type: cell-based; conditions: 1 mM, 24 hours
T2 construct: expressed in transfected cells; host or cells: MDCKII cells infected with recombinant adenovirus
T2 sequence (O95342 whole entry L339V): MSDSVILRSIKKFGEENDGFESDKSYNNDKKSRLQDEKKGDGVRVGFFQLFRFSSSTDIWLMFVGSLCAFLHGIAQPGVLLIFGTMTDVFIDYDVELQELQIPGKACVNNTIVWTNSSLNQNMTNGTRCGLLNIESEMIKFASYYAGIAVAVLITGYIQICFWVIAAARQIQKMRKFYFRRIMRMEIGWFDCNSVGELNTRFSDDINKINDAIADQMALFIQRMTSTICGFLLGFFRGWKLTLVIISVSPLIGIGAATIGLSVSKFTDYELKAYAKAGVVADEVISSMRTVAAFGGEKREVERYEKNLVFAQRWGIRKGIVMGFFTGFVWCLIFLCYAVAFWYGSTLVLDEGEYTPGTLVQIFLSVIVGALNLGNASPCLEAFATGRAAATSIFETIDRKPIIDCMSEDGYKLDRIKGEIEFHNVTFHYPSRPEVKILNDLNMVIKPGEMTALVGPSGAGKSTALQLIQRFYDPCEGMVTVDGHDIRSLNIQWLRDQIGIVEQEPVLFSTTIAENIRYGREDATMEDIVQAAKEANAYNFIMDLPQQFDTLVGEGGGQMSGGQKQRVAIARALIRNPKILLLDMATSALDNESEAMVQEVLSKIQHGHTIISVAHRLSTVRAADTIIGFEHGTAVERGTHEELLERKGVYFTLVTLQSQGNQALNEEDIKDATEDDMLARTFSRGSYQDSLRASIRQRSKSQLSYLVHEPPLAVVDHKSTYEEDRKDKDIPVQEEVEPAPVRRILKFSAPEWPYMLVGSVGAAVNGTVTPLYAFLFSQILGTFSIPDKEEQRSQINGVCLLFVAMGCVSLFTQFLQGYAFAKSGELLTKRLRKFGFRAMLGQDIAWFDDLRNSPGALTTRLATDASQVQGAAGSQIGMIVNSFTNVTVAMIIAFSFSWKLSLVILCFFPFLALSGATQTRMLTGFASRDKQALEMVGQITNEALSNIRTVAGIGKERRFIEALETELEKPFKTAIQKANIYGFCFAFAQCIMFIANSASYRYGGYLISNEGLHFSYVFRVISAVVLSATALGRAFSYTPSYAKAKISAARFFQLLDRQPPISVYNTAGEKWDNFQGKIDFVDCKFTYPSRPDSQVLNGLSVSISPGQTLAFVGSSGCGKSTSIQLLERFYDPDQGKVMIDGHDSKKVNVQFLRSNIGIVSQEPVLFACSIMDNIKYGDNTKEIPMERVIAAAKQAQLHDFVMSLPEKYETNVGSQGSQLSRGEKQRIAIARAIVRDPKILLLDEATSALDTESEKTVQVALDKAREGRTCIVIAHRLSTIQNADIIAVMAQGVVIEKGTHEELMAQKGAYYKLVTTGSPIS
Experimental: as §1

D482G BSEP = biological target: T3, D482G BSEP (Homo sapiens, UniProt O95342, D482G/L339V); assay: as above; assay type: cell-based; conditions: 1 mM, 24 hours
T3 construct: expressed in transfected cells; host or cells: MDCKII cells infected with recombinant adenovirus
T3 sequence (O95342 whole entry L339V/D482G): as the sequence (O95342 whole entry L339V) above, with D482G counted along it
Experimental: as §1

[2] = biological target: T4, BSEP on canalicular membrane (Rattus norvegicus, UniProt O70127); assay: Transport assay using canalicular membrane vesicles (CMVs) from treated rats; assay type: in vivo, SD rat
T4 construct: from tissue; host or cells: liver of male SD rats: in vivo for A27, canalicular membrane vesicles for A28 and A29
T4 sequence (O70127 1-1321): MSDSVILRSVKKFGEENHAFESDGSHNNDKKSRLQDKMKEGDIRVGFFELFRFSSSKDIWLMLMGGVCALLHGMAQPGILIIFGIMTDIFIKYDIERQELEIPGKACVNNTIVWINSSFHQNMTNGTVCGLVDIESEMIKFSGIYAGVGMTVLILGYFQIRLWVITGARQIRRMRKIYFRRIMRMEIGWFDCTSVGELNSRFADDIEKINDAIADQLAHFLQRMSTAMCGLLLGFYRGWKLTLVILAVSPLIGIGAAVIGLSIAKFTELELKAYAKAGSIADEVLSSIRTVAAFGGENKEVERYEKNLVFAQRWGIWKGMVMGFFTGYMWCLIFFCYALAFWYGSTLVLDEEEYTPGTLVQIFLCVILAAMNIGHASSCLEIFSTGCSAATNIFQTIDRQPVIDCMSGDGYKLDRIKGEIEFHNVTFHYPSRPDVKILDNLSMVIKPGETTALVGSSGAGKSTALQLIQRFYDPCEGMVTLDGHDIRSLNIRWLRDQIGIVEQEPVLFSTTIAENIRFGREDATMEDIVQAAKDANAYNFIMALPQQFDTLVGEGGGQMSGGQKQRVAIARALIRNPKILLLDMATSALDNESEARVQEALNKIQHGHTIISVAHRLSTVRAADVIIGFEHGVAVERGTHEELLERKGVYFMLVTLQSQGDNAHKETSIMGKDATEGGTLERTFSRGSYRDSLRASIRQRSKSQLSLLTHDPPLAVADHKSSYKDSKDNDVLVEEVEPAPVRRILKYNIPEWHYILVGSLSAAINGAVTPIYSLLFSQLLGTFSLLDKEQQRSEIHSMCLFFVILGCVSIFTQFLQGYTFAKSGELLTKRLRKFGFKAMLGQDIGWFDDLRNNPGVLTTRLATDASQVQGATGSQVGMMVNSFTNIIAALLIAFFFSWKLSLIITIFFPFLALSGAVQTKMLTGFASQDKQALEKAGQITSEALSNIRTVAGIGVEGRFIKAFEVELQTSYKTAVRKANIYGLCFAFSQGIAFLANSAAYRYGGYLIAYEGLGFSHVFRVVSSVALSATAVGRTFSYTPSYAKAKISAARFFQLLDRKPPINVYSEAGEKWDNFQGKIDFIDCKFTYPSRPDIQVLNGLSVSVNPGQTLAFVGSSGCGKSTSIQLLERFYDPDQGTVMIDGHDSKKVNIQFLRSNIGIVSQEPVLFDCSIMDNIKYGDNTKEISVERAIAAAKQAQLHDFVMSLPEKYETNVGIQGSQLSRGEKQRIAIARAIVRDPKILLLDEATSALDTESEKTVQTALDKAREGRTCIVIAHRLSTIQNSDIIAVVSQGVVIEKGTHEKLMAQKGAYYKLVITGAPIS
Experimental: […] 4PBA or a vehicle was given to a male SD rat (6- to 7-week-old) for 10 days, divided over 3 administrations. Canalicular membrane vesicles were prepared from the liver of the rat (Akita et al., Biochim Biophys Acta, 1511: 7-16, 2001), and they were then used in Western blotting and a transport assay. Such transport assay was carried out by a rapid filtration method (Hayashi et al., Biochim Biophys Acta, 1738: 54-62, 2005).

T1 sequence (O95342 whole entry E297G/L339V): as the sequence (O95342 whole entry L339V) above, with E297G counted along it

O=C(O)CCCc1ccccc1 [4PBA, 4-phenylbutyric acid]
expression level on the cell surface, increase (E297G BSEP): 3.1 times
expression of intrinsic DPPIV [1]: not influenced
expression level on the cell surface, increase (wild-type BSEP): 1.8 times
expression level on the cell surface, increase (D482G BSEP): 2.6 times
ATP-dependent uptake of [^3H] TC by CMVs, higher than CMVs from vehicle-treated rats ([2]; CMVs from SD rats treated at 0.6 g/kg/day for 10 days): 3 times
Vmax value of [^3H] TC uptake by CMVs ([2]; CMVs from SD rats treated with 4PBA at 0.6 g/kg/day for 10 days): 1,000±110
